Results taken from patent US9464092B2, “Transient protection of normal cells during chemotherapy” (G1 Therapeutics, Inc., priority 2013, dated 2016).
Where two headings read alike, the source gives them in different places.

Columns and labels:
[1] = system: RB-negative SCLC cell lines (H69, H82, H209, H345, NCI417, or SHP-77); experiment: EdU proliferation, RB-negative SCLC cell lines; details: 24 hours
[2] = system: telomerized human diploid fibroblasts (tHDFs); experiment: Caspase 3/7 activation in tHDF cells with chemotherapy; type: cell-based; details: pretreatment before carboplatin, doxorubicin, etoposide, camptothecin, and paclitaxel
Protocol: (§1) Cell survival was determined by Cell TiterGlo assay per manufacturer's recommendations. For both γ-H2AX and caspase 3/7 assays, cells were plated and allowed to become adherent for 24 hours. […] For γ-H2AX, cells were harvested for analysis 8 hours after chemotherapy exposure. For the γ-H2AX assay, cells were fixed, permeabilized, and stained with anti-γ-H2AX as per the γ-H2AX Flow Kit (Millipore) and quantitated by flow cytometry. Data was analyzed using FlowJo 2.2 software developed by TreeStar, Inc. For the in vitro caspase 3/7 assay, cells were harvested 24 hours post chemotherapy treatment. Caspase 3/7 activation was measured using the Caspase-Glo® 3/7 Assay System (Promega) per manufacturer's recommendations.

[3] = Mouse pharmacokinetics (oral gavage / intravenous); type: in vivo, mice; details: mouse
[4] = Metabolic stability in liver microsomes; type: in vitro ADME, human, dog, rat, monkey, and mouse; details: each of the species tested
Protocol: Human, mouse, and dog liver microsomes were purchased from Xenotech, and Sprague-Dawley rat liver microsomes were prepared by Absorption Systems. The reaction mixture comprising 0.5 mg/mL of liver microsomes, 100 mM of potassium phosphate, pH 7.4, 5 mM of magnesium chloride, and 1 uM of test compound was prepared. The test compound was added into the reaction mixture at a final concentration of 1 uM. An aliquot of the reaction mixture (without cofactor) was incubated in shaking water bath at 37 deg. C. for 3 minutes. The control compound, testosterone, was run simultaneously with the test compound in a separate reaction. The reaction was initiated by the addition of cofactor (NADPH), and the mixture was then incubated in a shaking water bath at 37 deg. C. Aliquots (100 μL) were withdrawn at 0, 10, 20, 30, and 60 minutes for the test compound and 0, 10, 30, and 60 minutes for testosterone. […] Test compound samples were analyzed using the Orbitrap high resolution mass spectrometer to quantify the disappearance of parent test compound and detect the appearance of metabolites. […] Half-lives were calculated using GraphPad software, fitting to a single-phase exponential decay equation.
When calculated half-life was longer than the duration of the experiment, the half-life was expressed as >the longest incubation time. The calculated half-life is also listed in parentheses. […]

[5] = system: Rb phosphorylation at Ser780 and Ser807/811; experiment: Rb phosphorylation western blot; type: cell-based; details: 300 nM
Protocol: The Cdk4/6-cyclin D complex is essential for progression from G1 to the S-phase of the DNA cell cycle. This complex phosphorylates the retinoblastoma tumor suppressor protein (Rb). […] Samples were lysed and protein was assayed by western blot analysis. Rb phosphorylation was measured at two sites targeted by the Cdk4/6-cyclin D complex, Ser780 and Ser807/811 using species specific antibodies.

[6] = system: tHS68 human fibroblasts; experiment: Protection from chemotherapy-induced cell death (Cell TiterGlo); type: cell-based; details: etoposide 5 μM or carboplatin 100 μM
Protocol: as §1

[7] = system: renal proximal tubule epithelial cells; experiment: Caspase 3/7 activation in renal proximal tubule epithelial cells with cisplatin; type: cell-based, human; details: 30 nM-1 uM with cisplatin 25 uM, 50 uM, or 100 uM
Protocol: Normal renal proximal tubule epithelial cells were obtained from American Type Culture Collection (ATCC, Manassas, Va.). Cells were grown in an incubator at 37° C. in a humidified atmosphere of 5% CO2 in Renal Epithelial Cell Basal Media (ATCC) supplemented with Renal Epithelial Cell Growth Kit (ATCC) in 37° C. humidified incubator. […] Caspase 3/7 activation was measured 24 hours later using the Caspase-Glo 3/7 Assay System (Promega, Madison, Wis.) by following the manufacturer's instructions.
Normal renal proximal tubule epithelial cells were obtained from American Type Culture Collection (ATCC, Manassas, Va.). Cells were grown in an incubator at 37° C. in a humidified atmosphere of 5% CO2 in Renal Epithelial Cell Basal Media (ATCC) supplemented with Renal Epithelial Cell Growth Kit (ATCC) in 37° C. humidified incubator. […] For the γ-H2AX assay, cells were fixed, permeabilized, and stained with anti-γ-H2AX as per the γ-H2AX Flow Kit (Millipore) and quantitated by flow cytometry. Data was analyzed using FlowJo 2.2 software developed by TreeStar, Inc. Caspase 3/7 activation was measured using the Caspase-Glo 3/7 Assay System (Promega, Madison, Wis.) by following the manufacturer's instructions.

[8] = system: RB-intact, Cdk4/6-dependent cell line (WM2664 or tHS68); experiment: EdU proliferation, RB-intact Cdk4/6-dependent cell line; details: 24 hours
[9] = system: tHS68 cells (CDK4/6-dependent cell line); experiment: Cell cycle arrest by propidium iodide flow cytometry, tHS68; type: cell-based, human; details: 300 nM, 24 hours
Description: To test the ability of Cdk4/6 inhibitors to induce a clean G1-arrest, a cell based screening method was used consisting of two Cdk4/6-dependent cell lines (tHS68 and WM2664; Rb-positive) and one Cdk4/6-independent (A2058; Rb-negative) cell line. […] At the conclusion of the experiment, cells were harvested, fixed, and stained with propidium iodide (a DNA intercalator), which fluoresces strongly red (emission maximum 637 nm) when excited by 488 nm light. Samples were run on Dako Cyan flow cytometer and >10,000 events were collected for each sample. Data were analyzed using FlowJo 2.2 software developed by TreeStar, Inc.

**Q.** Which results are given for `CN1CCN(c2ccc(Nc3ncc4cc5n(c4n3)C3(CCCCC3)CNC5=O)nc2)CC1` [Compound T]?
**A.** effect on proliferation (EdU, percent of cells in S-phase) [1]: does not affect the growth of the Rb-negative cell lines; caspase 3/7 activation [2]: robust decrease in caspase 3/7 activation in a dose-dependent manner; F [3]: 80%; half-life ([3]; plasma, po, 30 mg/kg, 30 mg/kg oral gavage, read-out: t1/2 p.o. (converted)): 5 h; half-life ([3]; plasma, po, 30 mg/kg, read-out: plasma half-life following oral administration): 3 to 5 h; bioavailability ([3]; plasma, po, 30 mg/kg, read-out: oral bioavailability (F (%))): 52 to 80%; AUC(0-inf) ([3]; plasma, iv, 10 mg/kg i.v.): 1.3 µM·h; clearance ([3]; plasma, iv, 10 mg/kg i.v.): 35 mL/min/kg; Vd ([3]; plasma, iv, 10 mg/kg i.v., read-out: Vss): 2.7 L/kg; AUC ([3]; plasma, 30 mg/kg oral gavage): 2.9 µM·h; Cmax ([3]; plasma, 30 mg/kg oral gavage): 2500 nM; Tmax ([3]; plasma, 30 mg/kg oral gavage): 1 h; half-life in liver microsomes compared with PD0332991 [4]: shorter half-life than PD0332991; time post exposure by which Rb phosphorylation is blocked ([5]; Rb-dependent cell lines (tHS68, WM2664)): ≤ 16 h; effect on Rb phosphorylation ([5]; Rb-independent cells (A2058)): no effect; protection from chemotherapy-induced cell death (cell survival) [6]: selective protection from carboplatin and etoposide-induced cell death; caspase 3/7 activation [7]: dose-dependent reduction in caspase 3/7 activation; effect on proliferation (EdU, percent of cells in S-phase) [8]: inhibits the Rb-positive cell line (tHS68); effect on S-phase peak [9]: causes a loss of the S-phase peak
